In assay [1] the target is T1, AGE-BSA (Bos taurus, UniProt P02769).
T1 construct: Bovine serum albumin (fraction V) (BSA); from tissue; host or cells: bovine serum (fraction V); glycated in house with 1.6 M glucose at 37 °C for 16 weeks
The experiment in a line: In-vitro AGE breaking activity by ELISA. Type of assay: biochemical, Bovine. Particulars: 37° C., 24 hours. The protocol:
AGE breaking activity has been confirmed by the screening procedure as mentioned below:
Methods of experiment: Elisa (Enzyme Linked Immunosorbent Assay)
160 mg/ml of protein, bovine serum albumin, BSA and 1.6M glucose sugar were dissolved in phosphate buffered saline, PBS. Sodium azide was added at 0.02% concentration as a preservative. The solution was filtered asceptically through a […] filter and kept for aging at 37° C. for 16 weeks. After 16 weeks the solution was dialyzed against PBS, aliquoted and stored at −20° C.
To determine the AGE breaking activity, 10 μg/ml of the 16 weeks AGE-BSA was incubated with different concentrations of the test compounds at 37° C. for 24 hours and AGE breaking activity of the test compounds by ELISA was determined.
ELISA was performed as follows
1. Different concentrations of 16 weeks AGE-BSA were coated on a microtiter plate as standard. Each concentration is coated in triplicates.
2. The test samples were coated on microtiter plate at a concentration of 5 ng to 20 ng per well in triplicates
3. The plate was incubated at 37° C. for one hour.
4. After incubation the plate was washed with PBST (PBS with 0.05% Tween 20).
5. Blocking with 5% skimmed milk in PBS at 37° C. for one hour was done.
6. The plate was washed with PBST.
7. Primary antibody against AGE-BSA was added and the plate is incubated at 37° C. for one hour.
8. The plate was washed with PBST
9. Secondary antibody anti rabbit HRPO (Horse-Radish Per Oxidase) conjugate was added and the plate is incubated at 37° C. for one hour.
10. The plate was washed with PBST.
11. Colour development with OPD (orthophenylenediamine dihydrochloride) and hydrogen peroxide was done.
12. OD (optical density) at (450 nm reading-620 nm reading) was measured after incubation at 37° C. for 15 minutes with Microplate ELISA Reader
The breaker activity of the compounds were determined by the following formula: [formula]
OD450-620Control=Absorbance of 20 ng AGE-BSA after incubation at 37° C. for 24 hours without test compound
OD450-620Test=Absorbance of 20 ng AGE-BSA after incubation at 37° C. for 24 hours with required concentration of test compound
Using specific examples, the % AGE breaking activity was calculated and recorded in Table 2.

A short description of assay [2]: Free radical scavenging activity on ABTS radical cation. Format: biochemical. The protocol: This method measures the relative ability of free radical scavenging substances to scavenge the ABTS^.+ i.e. 2,2-Azino-bis-(3-ethyl benzo thiazoline-6-sulfonate) radical cation as compared to a standard amount of standard or free radical scavengers antioxidants. Incubation of ABTS with Peroxidase (metmyoglobin) and hydrogen peroxide results in the production of radical cation ABTS^.+. This species is blue-green in colour and can be detected at 730 nm. Antioxidants or free radical scavengers in the added sample that causes suppression of the color to a degree that is proportional to their concentration.
Preparation of Buffer Solutions
A. Phosphate Citrate Buffer (pH 5.0). 48.5 ml of 0.1M citric acid with sufficient 0.2M disodium hydrogen phosphate to produce 100 ml.
B. Phosphate Buffer Saline (PBS): Dissolve 40.0 g of NaCl, 1.0 g of KCl, 1.0 g of KH2PO4 and 3.05 g of Na2HPO4 in 1 liter milli-Q water. Dilute 200 ml of above solution to 1 liter with milli-Q water (pH 7.4-7.6).
C. 3 μM stock solution of Peroxidase was prepared in phosphate buffer saline pH 7.4(PBS).
D. 1.08 mM stock solution of Hydrogen peroxide was prepared in phosphate buffer saline pH 7.4 (PBS).
Preparation of ABTS Stock Solution
1 tablet (10 mg) was dissolved in phosphate citrate buffer (pH 5.0).
Preparation of ABTS Working Solution
5.0 ml of ABTS stock solution was diluted with PBS to 20 ml.
Preparation of Horse Radish Peroxidase Stock Solution
320 μg of the enzyme was dissolved in 2.5 ml of PBS.
Preparation of Hydrogen Peroxide (1.08 mM) Solution
12 μl of Hydrogen Peroxide (30% w/v) was diluted to 100 ml with PBS. […]
Preparation of ABTS Radical Stock Solution
To 18 ml of ABTS stock solution, 100 μl of Horseradish Peroxidase stock solution was added.
As soon as 1.5 ml of hydrogen peroxide solution was added to the above solution, blue-green colour of the ABTS radicals appeared. This solution was incubated at 30° C. for 30 min.
Preparation of Control Solution
980 μl of ABTS radical stock solution was added to an eppendorf tube. To it was added 100 μl of various PBS solution.
Preparation of test Solution
980 μl of ABTS radical stock solutions were added to different eppendorf tubes. To it were added 100 μl of various concentrations of drug solution.
Measurement of Absorbance (O.D)
The absorbance of control and test samples was recorded immediately at 730 nm taking PBS as blank.
Calculation: The percent antioxidant activity was calculated according to the formula. % Antioxidant activity=[O.D of test sample/O.D of control*100]−100.

These results are taken from patent publication US20020103228A1, “Composition and method for use of pyridinium derivatives in cosmetic and therapeutic applications” (TORRENT PHARMACEUTICALS LTD., priority 1999, published 2002).

T1 sequence (P02769 25-607): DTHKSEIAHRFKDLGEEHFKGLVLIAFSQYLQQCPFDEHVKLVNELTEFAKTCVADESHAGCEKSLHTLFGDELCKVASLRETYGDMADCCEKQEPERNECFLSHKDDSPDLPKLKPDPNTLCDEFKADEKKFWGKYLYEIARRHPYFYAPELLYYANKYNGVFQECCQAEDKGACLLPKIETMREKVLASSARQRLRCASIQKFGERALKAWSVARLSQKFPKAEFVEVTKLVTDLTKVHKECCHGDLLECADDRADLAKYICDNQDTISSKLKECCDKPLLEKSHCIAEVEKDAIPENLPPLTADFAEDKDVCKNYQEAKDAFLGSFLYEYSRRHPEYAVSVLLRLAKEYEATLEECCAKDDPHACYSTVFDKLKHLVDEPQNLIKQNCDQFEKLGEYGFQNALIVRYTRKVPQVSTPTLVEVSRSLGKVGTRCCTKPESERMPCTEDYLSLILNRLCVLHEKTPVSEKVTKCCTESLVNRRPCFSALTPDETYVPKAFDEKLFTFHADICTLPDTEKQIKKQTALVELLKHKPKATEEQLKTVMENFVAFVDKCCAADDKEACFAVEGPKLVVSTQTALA

With `O=C(C[n+]1cccc(C(=O)NCCOC(=O)c2ccccc2)c1)Nc1ccccc1.[Cl-]` [Compound 23, 1-(2-phenylamino-2-oxoethyl)-3-((benzoyloxy)ethylaminocarbonyl)pyridinium chloride], the “% Breakage” value in assay [1] (10 mM test compound) amounted to 37%; in assay [1] (25 mM test compound), 90%.
As for `CCOC(=O)C1CCCN1C(=O)C[n+]1cccc(C(=O)NNS(C)(=O)=O)c1.[Cl-]` (stereo not drawn) [Compound 52, 1-(2-(2-ethoxycarbonylpyrrolidin-1-yl)-2-oxoethyl)-3-(methanesulfonyl hydrazinocarbonyl)pyridinium chloride], in assay [1] (10 mM test compound), the “% Breakage” value stood at 25.34%.
Same read-out and setting: to `CCOC(=O)C[n+]1cccc(C(=O)NCCO)c1.[Br-]` [Compound 87, 1-(2-Ethoxy-2-oxoethyl)-3-((2-hydroxyethyl)aminocarbonyl)pyridinium bromide] belongs 43%.
On the same count and under the same terms, as for `COCCNC(=O)c1cc(Br)c[n+](CC(=O)c2cccs2)c1.[Cl-]` [Compound 47, 1-(2-thien-2′-yl-2-oxoethyl)-3-((2-methoxyethyl)aminocarbonyl)-5-bromo pyridinium chloride], the figure is 32.38%; as for `O=C(C[n+]1ccc(C(=O)NCCOC(=O)c2ccccc2)cc1)Nc1ccccc1.[Cl-]` [Compound 66, 1-(2-phenylamino-2-oxoethyl)-4-[2-(benzoyloxy)ethylaminocarbonyl]pyridinium chloride], 19.07%; as for `CC(=O)OCCOC(=O)c1ccc[n+](CC(=O)c2ccccc2)c1.[Br-]` [Compound 16, 1-(2-phenyl-2-oxoethyl)-3-(2-(acetoxy)ethyloxycarbonyl)pyridinium bromide], 16%.
Regarding `CCCCNC(=O)c1ccc[n+](CC(=O)Nc2ccccc2)c1.[Cl-]` [Compound 94, 1-(2-Phenylamino-2-oxoethyl)-3-(n-butylaminocarbonyl)pyridinium chloride], the “% Breakage” value in assay [1] (10 mM test compound) came out at 27%.
Take `Cc1ccc(C(=O)NNC(=O)c2ccc[n+](CC(=O)c3cccs3)c2)c[n+]1CC(=O)c1cccs1.[Cl-].[Cl-]` [Compound 49, 1-[1-(2-thien-2′yl-2-oxoethyl)-6-methyl-3-carbonylpyridinium]-2-[1-(2-Thien-2′-yl-2-oxoethyl)-3-carbonylpyridinium]hydrazine dichloride]: the “% Breakage” value in assay [1] (2.5 mM test compound) is given as 85.67%.
With `O=C(NNC(=O)c1ccc[n+](CC(=O)c2ccco2)c1)c1ccc[n+](CC(=O)c2ccco2)c1.[Br-].[Br-]` [Compound 32, N,N′-bis[3-carbonyl-1-(2-furan-2′-yl-2-oxoethyl)pyridinium]hydrazine dibromide], the “% Breakage” value in assay [1] (10 mM test compound) is recorded as 14%.
On to `O=C(C[n+]1cccc(C(=O)NNC(=O)c2ccc[n+](CC(=O)c3ccccc3)c2)c1)c1ccccc1.[Br-].[Br-]` [Compound 1, N,N′-bis[3-carbonyl-1-(2-phenyl-2-oxoethyl)-pyridinium]hydrazine dibromide], for which the “% Breakage” value in assay [1] (5 mM test compound) is recorded as 13%.
Regarding `CCOC(=O)C[n+]1cccc(C(=O)NCCOC(=O)c2ccccc2)c1.[Br-]` [Compound 7, 1-(2-ethoxy-2-oxoethyl)-3-(2-(benzoyloxy)ethylaminocarbonyl)pyridinium bromide], in assay [1] (20 mM test compound), the “% Breakage” value is recorded as 36%.
Take `CS(=O)(=O)NNC(=O)c1cc(Br)c[n+](CC(=O)c2cccs2)c1.[Br-]` [Compound 53, 1-(2-thien-2′-yl-2-oxoethyl)-3-(methanesulfonyl hydrazinocarbonyl)-5-bromo pyridinium bromide]: the “% Breakage” value in assay [1] (2.5 mM test compound) came out at 29.36%.
Take `O=C(NNC(=O)c1cccnc1Cl)c1ccc[n+](CC(=O)c2cccs2)c1.[Cl-]` [Compound 42, 1-(2-thien-2′yl-2-oxoethyl)-3-(2-(2-chloro-3-pyridoyl)hydrazinocarbonyl)-pyridinium chloride]: the “% Breakage” value in assay [1] (10 mM test compound) was 12.51%.
Regarding `O=C(NCCOC(=O)c1ccccc1)c1ccc[n+](CC(=O)c2cccs2)c1.[Br-]` [Compound 36, 1-(2-thien-2′-yl-2-oxoethyl)-3-[2-(benzoyloxy)ethylaminocarbonyl]-pyridinium bromide], the “Relative Free Radical Scavenging Activity (%) on ABTS” value in assay [2] (11.5 μM) is on record as 27.6%; in assay [2] (23.0 μM), 59.2%; in assay [2] (46.0 μM) it was 74.2%; in assay [2] (92.5 μM), 83.9%; in assay [2] (925 μM) it was 100%.
In the same order, the values of `O=C1CCCC(CCNNC(=O)c2ccc[n+](CC(=O)Nc3ccccc3)c2)C1.[Br-]` (stereo not drawn) [Compound 35, 1-(2-phenylamino-2-oxoethyl)-3-({2-(1-oxo-3-cyclohexyl)-ethyl}-hydrazinocarbonyl}pyridinium bromide] are 50.5%, 63.4%, 80.9%, 90.6% and 100%.
The corresponding values for `O=C(NCCOC(=O)c1ccccc1)c1cc[n+](CC(=O)c2cccs2)cc1.[Br-]` [Compound 18, 1-(2-thien-2′-yl-2-oxoethyl)-4-(2-(benzoyloxy)ethylaminocarbonyl)pyridinium bromide] are 41.8%, 59.5%, 75.2%, 91.0% and 100%.
In the same order, the values of `O=C(C[n+]1cccc(C(=O)NNS(=O)(=O)Cc2ccccc2)c1)c1ccccc1.[Br-]` [Compound 31, 1-(2-phenyl-2-oxoethyl)-3-((phenylmethyl)sulfonyl hydrazinocarbonyl)pyridinium bromide] are 41.6%, 57.7%, 66.9%, 99.2% and 100%.
With `CCOC(=O)C1CSCN1C(=O)C[n+]1cccc(C(=O)NNS(C)(=O)=O)c1.[Cl-]` (stereo not drawn) [Compound 61, 1-(2-(4-carboethoxy-thiazolidin-3-yl)-2-oxoethyl)-3-(methanesulfonyl hydrazinocarbonyl)pyridinium chloride], in assay [1] (10 mM test compound), the “% Breakage” value was found to be 25.06%.
Turning to `O=C(C[n+]1cccc(C(=O)NCCO)c1)Nc1ccccc1.[Cl-]` [Compound 95, 1-(2-Phenylamino-2-oxoethyl)-3-((2-hydroxyethyl)aminocarbonyl)-pyridinium chloride], the “% Breakage” value in assay [1] (20 mM test compound) was 48%.
